Results taken from ChEMBL document CHEMBL4507317, “Data for DCP probe BAY-899” (2021).

How the values were obtained:
[1] = target: Cyclin-dependent kinase 11B (Homo sapiens) (UniProt P21127); conditions: Compound concentration 1000.0 nM
[2] = target: RAC-alpha serine/threonine-protein kinase (Homo sapiens) (UniProt P31749); conditions: Compound concentration 1000.0 nM
[3] = test system: Epidermal growth factor receptor (Homo sapiens), P00533 [L858R,T790M]; conditions: Compound concentration 1000.0 nM
[4] = target: Aurora kinase B (Homo sapiens) (UniProt Q96GD4); conditions: Compound concentration 1000.0 nM
[5] = target: Tyrosine-protein kinase Fyn (Homo sapiens) (UniProt P06241); conditions: Compound concentration 1000.0 nM
[6] = test system: Epidermal growth factor receptor (Homo sapiens), P00533 [L858R]; conditions: Compound concentration 1000.0 nM
[7] = target: Dual specificity tyrosine-phosphorylation-regulated kinase 1B (Homo sapiens) (UniProt Q9Y463); conditions: Compound concentration 1000.0 nM
[8] = test system: Epidermal growth factor receptor (Homo sapiens), P00533 [UNDEFINED MUTATION]; conditions: Compound concentration 1000.0 nM
[9] = target: Mitogen-activated protein kinase kinase kinase 13 (Homo sapiens) (UniProt O43283); conditions: Compound concentration 1000.0 nM
[10] = target: GABA-A receptor; anion channel (Rattus norvegicus) (UniProt O09028+P15431+P18506+P18508+P19969+P20236+P23574+P23576+P28471+P28473+P30191+P62813+P63079+P63138+Q91ZM7+Q9ES14); conditions: Compound concentration 10.0 uM
[11] = target: ALK tyrosine kinase receptor (Homo sapiens) (UniProt Q9UM73); conditions: Compound concentration 1000.0 nM
[12] = target: SRSF protein kinase 3 (Homo sapiens) (UniProt Q9UPE1); conditions: Compound concentration 1000.0 nM
[13] = target: Homeodomain-interacting protein kinase 3 (Homo sapiens) (UniProt Q9H422); conditions: Compound concentration 1000.0 nM
[14] = target: Serine/threonine-protein kinase DCLK1 (Homo sapiens) (UniProt O15075); conditions: Compound concentration 1000.0 nM
[15] = target: Myosin light chain kinase 2, skeletal/cardiac muscle (Homo sapiens) (UniProt Q9H1R3); conditions: Compound concentration 1000.0 nM
[16] = target: Protein kinase C eta type (Homo sapiens) (UniProt P24723); conditions: Compound concentration 1000.0 nM
[17] = target: Calcium/calmodulin-dependent protein kinase type 1B (Homo sapiens) (UniProt Q6P2M8); conditions: Compound concentration 1000.0 nM
[18] = target: Tyrosine-protein kinase CSK (Homo sapiens) (UniProt P41240); conditions: Compound concentration 1000.0 nM
[19] = target: Homeodomain-interacting protein kinase 2 (Homo sapiens) (UniProt Q9H2X6); conditions: Compound concentration 1000.0 nM
[20] = target: Ephrin type-A receptor 5 (Homo sapiens) (UniProt P54756); conditions: Compound concentration 1000.0 nM
[21] = test system: Receptor-type tyrosine-protein kinase FLT3 (Homo sapiens), P36888 [D835V]; conditions: Compound concentration 1000.0 nM
[22] = test system: Phosphatidylinositol 4,5-bisphosphate 3-kinase catalytic subunit alpha isoform (Homo sapiens), P42336 [E542K]; conditions: Compound concentration 1000.0 nM
[23] = target: Non-receptor tyrosine-protein kinase TNK1 (Homo sapiens) (UniProt Q13470); conditions: Compound concentration 1000.0 nM
[24] = target: Activin receptor type-1-like (Homo sapiens) (UniProt P37023); conditions: Compound concentration 1000.0 nM
[25] = target: Dual specificity protein kinase CLK1 (Homo sapiens) (UniProt P49759); conditions: Compound concentration 1000.0 nM
[26] = target: Serine/threonine-protein kinase MRCK beta (Homo sapiens) (UniProt Q9Y5S2); conditions: Compound concentration 1000.0 nM
[27] = target: Cytoplasmic tyrosine-protein kinase BMX (Homo sapiens) (UniProt P51813); conditions: Compound concentration 1000.0 nM
[28] = target: Muscarinic acetylcholine receptor M2 (Homo sapiens) (UniProt P08172); conditions: Compound concentration 10.0 uM
[29] = target: Serine/threonine-protein kinase PknB (Mycobacterium tuberculosis) (UniProt P9WI81); conditions: Compound concentration 1000.0 nM
[30] = target: Serine/threonine-protein kinase SBK1 (Homo sapiens) (UniProt Q52WX2); conditions: Compound concentration 1000.0 nM
[31] = target: Cyclin-dependent kinase 19 (Homo sapiens) (UniProt Q9BWU1); conditions: Compound concentration 1000.0 nM
[32] = target: Tyrosine-protein kinase Fgr (Homo sapiens) (UniProt P09769); conditions: Compound concentration 1000.0 nM
[33] = target: Interleukin-1 receptor-associated kinase 1 (Homo sapiens) (UniProt P51617); conditions: Compound concentration 1000.0 nM
[34] = target: Phosphatidylinositol 4-phosphate 3-kinase C2 domain-containing subunit beta (Homo sapiens) (UniProt O00750); conditions: Compound concentration 1000.0 nM
[35] = target: Dual specificity mitogen-activated protein kinase kinase 4 (Homo sapiens) (UniProt P45985); conditions: Compound concentration 1000.0 nM
[36] = target: Ribosomal protein S6 kinase alpha-5 (Homo sapiens) (UniProt O75582); conditions: Compound concentration 1000.0 nM
[37] = target: Mitogen-activated protein kinase kinase kinase kinase 5 (Homo sapiens) (UniProt Q9Y4K4); conditions: Compound concentration 1000.0 nM
[38] = target: Mitogen-activated protein kinase kinase kinase 20 (Homo sapiens) (UniProt Q9NYL2); conditions: Compound concentration 1000.0 nM
[39] = target: D(1A) dopamine receptor (Homo sapiens) (UniProt P21728); conditions: Compound concentration 10.0 uM
[40] = target: Serine/threonine-protein kinase Nek9 (Homo sapiens) (UniProt Q8TD19); conditions: Compound concentration 1000.0 nM
[41] = target: Myotonin-protein kinase (Homo sapiens) (UniProt Q09013); conditions: Compound concentration 1000.0 nM
[42] = target: Ribosomal protein S6 kinase alpha-3 (Homo sapiens) (UniProt P51812); conditions: Compound concentration 1000.0 nM
[43] = target: Mitogen-activated protein kinase kinase kinase 12 (Homo sapiens) (UniProt Q12852); conditions: Compound concentration 1000.0 nM
Chain of Mitogen-activated protein kinase kinase kinase 12 (Homo sapiens) (Q12852 whole entry): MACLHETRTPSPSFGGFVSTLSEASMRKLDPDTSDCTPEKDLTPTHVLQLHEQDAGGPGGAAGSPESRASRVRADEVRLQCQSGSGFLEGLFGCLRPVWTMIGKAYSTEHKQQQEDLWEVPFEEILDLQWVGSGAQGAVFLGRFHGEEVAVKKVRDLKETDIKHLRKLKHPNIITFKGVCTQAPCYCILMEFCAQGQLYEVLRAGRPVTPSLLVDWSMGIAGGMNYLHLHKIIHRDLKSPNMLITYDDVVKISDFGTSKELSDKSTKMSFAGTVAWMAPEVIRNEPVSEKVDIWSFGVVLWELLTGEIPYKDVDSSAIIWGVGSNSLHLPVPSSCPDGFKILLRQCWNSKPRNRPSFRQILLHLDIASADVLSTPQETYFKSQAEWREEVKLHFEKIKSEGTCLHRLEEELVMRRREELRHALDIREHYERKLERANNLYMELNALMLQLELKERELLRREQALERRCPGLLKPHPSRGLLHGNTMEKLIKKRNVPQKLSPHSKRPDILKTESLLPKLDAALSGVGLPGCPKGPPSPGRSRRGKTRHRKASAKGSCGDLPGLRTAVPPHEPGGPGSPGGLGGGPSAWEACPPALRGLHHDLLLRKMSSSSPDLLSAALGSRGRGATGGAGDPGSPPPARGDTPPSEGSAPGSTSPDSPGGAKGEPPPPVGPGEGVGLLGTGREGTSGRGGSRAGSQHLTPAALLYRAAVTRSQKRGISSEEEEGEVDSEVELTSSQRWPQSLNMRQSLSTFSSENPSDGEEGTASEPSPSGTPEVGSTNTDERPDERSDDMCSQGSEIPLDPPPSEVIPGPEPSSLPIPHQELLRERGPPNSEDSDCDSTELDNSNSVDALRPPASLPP

Chain of ALK tyrosine kinase receptor (Homo sapiens) (Q9UM73 19-1620 limits assumed): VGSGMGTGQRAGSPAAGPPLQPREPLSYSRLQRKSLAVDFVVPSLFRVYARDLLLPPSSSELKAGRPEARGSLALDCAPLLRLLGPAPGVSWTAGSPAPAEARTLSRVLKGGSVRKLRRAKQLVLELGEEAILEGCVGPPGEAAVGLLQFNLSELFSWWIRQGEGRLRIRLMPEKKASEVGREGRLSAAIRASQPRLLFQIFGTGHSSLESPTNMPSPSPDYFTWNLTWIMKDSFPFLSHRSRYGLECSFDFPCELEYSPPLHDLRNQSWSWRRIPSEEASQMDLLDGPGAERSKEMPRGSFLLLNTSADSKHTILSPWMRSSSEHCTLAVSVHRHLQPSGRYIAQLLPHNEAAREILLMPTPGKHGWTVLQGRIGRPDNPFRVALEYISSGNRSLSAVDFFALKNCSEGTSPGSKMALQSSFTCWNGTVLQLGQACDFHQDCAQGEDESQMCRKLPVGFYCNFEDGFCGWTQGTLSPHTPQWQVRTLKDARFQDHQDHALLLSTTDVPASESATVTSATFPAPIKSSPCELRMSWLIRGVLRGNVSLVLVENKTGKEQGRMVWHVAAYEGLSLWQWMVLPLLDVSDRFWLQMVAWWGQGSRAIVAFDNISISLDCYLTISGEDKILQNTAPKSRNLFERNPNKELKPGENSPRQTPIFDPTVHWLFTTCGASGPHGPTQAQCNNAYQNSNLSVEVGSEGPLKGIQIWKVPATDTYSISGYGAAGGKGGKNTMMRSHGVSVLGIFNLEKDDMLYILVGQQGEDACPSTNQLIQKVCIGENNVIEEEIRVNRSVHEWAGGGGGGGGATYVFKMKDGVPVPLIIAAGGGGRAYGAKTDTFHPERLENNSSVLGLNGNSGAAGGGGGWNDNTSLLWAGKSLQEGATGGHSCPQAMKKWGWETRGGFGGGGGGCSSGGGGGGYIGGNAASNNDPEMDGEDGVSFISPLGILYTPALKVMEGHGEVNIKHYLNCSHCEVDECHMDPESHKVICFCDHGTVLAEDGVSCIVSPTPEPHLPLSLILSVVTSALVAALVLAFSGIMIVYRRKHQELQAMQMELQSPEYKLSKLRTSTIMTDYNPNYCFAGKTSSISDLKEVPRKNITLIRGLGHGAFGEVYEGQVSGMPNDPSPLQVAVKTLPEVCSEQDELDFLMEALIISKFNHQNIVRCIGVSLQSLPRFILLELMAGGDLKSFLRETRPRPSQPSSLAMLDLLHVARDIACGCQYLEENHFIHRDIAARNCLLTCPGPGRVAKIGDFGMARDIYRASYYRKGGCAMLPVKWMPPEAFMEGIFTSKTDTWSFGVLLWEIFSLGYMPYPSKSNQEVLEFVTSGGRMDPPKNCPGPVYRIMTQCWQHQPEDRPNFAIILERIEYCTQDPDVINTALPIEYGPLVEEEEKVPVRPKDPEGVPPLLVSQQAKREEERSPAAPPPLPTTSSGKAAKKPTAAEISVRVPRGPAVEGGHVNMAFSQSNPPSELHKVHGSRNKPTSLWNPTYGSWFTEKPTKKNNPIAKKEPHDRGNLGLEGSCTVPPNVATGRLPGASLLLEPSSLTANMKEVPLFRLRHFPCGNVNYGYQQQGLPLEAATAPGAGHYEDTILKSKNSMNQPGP
Chain of Mitogen-activated protein kinase kinase kinase 13 (Homo sapiens) (O43283 whole entry): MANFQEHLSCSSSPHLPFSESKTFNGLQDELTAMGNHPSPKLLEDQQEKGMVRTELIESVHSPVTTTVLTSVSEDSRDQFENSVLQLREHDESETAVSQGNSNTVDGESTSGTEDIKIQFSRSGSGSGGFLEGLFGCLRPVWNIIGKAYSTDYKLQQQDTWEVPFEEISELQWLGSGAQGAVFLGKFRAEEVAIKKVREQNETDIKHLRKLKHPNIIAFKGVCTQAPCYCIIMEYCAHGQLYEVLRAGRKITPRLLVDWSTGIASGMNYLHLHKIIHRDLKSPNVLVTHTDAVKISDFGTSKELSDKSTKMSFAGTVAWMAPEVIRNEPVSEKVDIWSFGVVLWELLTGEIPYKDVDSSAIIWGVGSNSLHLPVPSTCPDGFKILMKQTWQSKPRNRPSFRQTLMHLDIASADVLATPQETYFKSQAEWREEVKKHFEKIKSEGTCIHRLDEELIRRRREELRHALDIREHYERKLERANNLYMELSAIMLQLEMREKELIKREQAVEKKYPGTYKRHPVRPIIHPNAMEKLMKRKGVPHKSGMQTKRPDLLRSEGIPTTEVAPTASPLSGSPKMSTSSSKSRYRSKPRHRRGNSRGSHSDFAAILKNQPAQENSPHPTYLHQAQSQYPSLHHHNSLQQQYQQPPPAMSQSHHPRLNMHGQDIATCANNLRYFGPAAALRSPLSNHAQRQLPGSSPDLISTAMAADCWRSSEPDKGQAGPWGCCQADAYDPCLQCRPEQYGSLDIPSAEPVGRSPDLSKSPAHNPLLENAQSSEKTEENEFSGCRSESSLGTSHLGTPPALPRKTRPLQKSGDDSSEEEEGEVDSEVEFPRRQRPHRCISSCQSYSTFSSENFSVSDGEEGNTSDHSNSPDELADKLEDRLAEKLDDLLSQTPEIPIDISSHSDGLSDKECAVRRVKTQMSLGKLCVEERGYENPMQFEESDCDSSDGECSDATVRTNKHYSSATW
Chain of Serine/threonine-protein kinase PknB (Mycobacterium tuberculosis) (P9WI81 whole entry): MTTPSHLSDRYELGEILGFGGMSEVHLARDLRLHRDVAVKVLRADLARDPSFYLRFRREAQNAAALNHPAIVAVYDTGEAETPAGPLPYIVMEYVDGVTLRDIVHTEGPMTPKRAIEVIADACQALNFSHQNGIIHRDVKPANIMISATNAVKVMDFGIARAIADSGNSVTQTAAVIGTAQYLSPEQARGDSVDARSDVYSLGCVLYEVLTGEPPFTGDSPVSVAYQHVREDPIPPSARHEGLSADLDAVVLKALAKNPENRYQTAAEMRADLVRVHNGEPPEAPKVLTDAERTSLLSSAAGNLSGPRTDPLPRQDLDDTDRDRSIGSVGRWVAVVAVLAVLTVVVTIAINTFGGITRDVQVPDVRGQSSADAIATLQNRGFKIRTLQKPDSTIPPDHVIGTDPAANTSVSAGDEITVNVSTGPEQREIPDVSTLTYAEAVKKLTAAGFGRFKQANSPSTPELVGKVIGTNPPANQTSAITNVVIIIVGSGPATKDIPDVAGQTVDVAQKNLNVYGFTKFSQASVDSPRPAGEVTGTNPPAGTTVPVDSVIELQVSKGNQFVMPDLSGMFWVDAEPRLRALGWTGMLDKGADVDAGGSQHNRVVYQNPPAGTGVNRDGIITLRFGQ
Chain of D(1A) dopamine receptor (Homo sapiens) (P21728 whole entry): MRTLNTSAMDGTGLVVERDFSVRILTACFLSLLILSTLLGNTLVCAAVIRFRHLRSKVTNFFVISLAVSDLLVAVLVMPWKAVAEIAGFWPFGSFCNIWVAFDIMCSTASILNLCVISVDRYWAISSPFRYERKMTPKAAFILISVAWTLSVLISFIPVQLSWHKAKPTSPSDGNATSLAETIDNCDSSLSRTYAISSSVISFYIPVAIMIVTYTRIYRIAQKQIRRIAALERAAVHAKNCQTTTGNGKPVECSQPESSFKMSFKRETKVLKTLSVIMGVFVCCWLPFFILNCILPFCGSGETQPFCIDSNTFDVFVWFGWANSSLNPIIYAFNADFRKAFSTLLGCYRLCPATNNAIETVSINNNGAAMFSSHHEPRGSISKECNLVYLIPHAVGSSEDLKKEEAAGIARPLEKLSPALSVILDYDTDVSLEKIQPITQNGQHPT
Chain of Activin receptor type-1-like (Homo sapiens) (P37023 whole entry): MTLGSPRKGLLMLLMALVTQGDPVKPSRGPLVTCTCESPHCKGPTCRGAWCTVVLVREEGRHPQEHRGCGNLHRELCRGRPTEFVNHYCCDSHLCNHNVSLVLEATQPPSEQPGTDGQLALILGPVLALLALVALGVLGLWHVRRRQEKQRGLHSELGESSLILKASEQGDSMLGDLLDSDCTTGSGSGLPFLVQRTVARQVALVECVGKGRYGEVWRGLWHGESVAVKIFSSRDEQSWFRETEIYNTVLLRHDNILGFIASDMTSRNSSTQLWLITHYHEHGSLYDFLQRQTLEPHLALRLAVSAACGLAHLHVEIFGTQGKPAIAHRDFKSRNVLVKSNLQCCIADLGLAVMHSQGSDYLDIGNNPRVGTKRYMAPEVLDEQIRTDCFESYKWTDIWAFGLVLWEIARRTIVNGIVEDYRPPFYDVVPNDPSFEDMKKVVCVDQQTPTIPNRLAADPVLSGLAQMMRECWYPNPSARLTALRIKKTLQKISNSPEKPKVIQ

O=C(Nc1ccc(Oc2ccc(F)cc2)cc1)N1CCc2ncccc2[C@H]1c1ccc(F)cc1 [BAY-897]
inactive: residual activity [1] 89% | residual activity [2] 95% | residual activity [3] 71% | residual activity [4] 89% | residual activity [5] 89% | residual activity [6] 96% | residual activity [7] 88% | residual activity [8] 100% | residual activity [9] 98% | inhibition [10] 22.4% | residual activity [11] 100% | residual activity [12] 100% | residual activity [13] 92% | residual activity [14] 100% | residual activity [15] 100% | residual activity [16] 93% | residual activity [17] 96% | residual activity [18] 100% | residual activity [19] 79% | residual activity [20] 100% | residual activity [21] 96% | residual activity [22] 71% | residual activity [23] 96% | residual activity [24] 81% | residual activity [25] 86% | residual activity [26] 88% | residual activity [27] 100% | inhibition [28] -1.78% | residual activity [29] 86% | residual activity [30] 89% | residual activity [31] 79% | residual activity [32] 100% | residual activity [33] 88% | residual activity [34] 96% | residual activity [35] 86% | residual activity [36] 74% | residual activity [37] 91% | residual activity [38] 100% | inhibition [39] 39.1% | residual activity [40] 88% | residual activity [41] 91% | residual activity [42] 84% | residual activity [43] 100%

O=C(Nc1cnc(Oc2ccc(F)cc2)nc1)N1CCc2ncccc2[C@@H]1c1ccc(F)cc1 [BAY-899]
inactive: residual activity [1] 94% | residual activity [2] 100% | residual activity [3] 70% | residual activity [4] 80% | residual activity [5] 100% | residual activity [6] 92% | residual activity [7] 78% | residual activity [8] 100% | residual activity [9] 88% | inhibition [10] 26% | residual activity [11] 99% | residual activity [12] 100% | residual activity [13] 90% | residual activity [14] 83% | residual activity [15] 90% | residual activity [16] 76% | residual activity [17] 100% | residual activity [18] 100% | residual activity [19] 91% | residual activity [20] 100% | residual activity [21] 100% | residual activity [22] 81% | residual activity [23] 97% | residual activity [24] 99% | residual activity [25] 80% | residual activity [26] 73% | residual activity [27] 94% | inhibition [28] -5.1% | residual activity [29] 90% | residual activity [30] 100% | residual activity [31] 75% | residual activity [32] 100% | residual activity [33] 88% | residual activity [34] 95% | residual activity [35] 100% | residual activity [36] 74% | residual activity [37] 77% | residual activity [38] 100% | inhibition [39] 23.7% | residual activity [40] 90% | residual activity [41] 98% | residual activity [42] 97% | residual activity [43] 100%
